Measurements from patent publication US20230026616A1, “PYRIMIDOIMIDAZOLE COMPOUNDS USED AS DNA-PK INHIBITORS” (MEDSHINE DISCOVERY INC., priority 2019, published 2023).
Read-outs that look alike come from different tables or passages of the source.

Tests used:
[1] = Pharmacokinetic evaluation (1): cassette PK in Balb/c male mice, plasma; assay type: in vivo; settings: for AUC(0-t) / C0 / clearance / half-life / Vd / Cmax / Tmax: male, Balb/c; for AUC(0-t) / C0 / clearance / half-life / Vd / Cmax / Tmax / Tlast: mouse plasma; for Vd: read-out: Vdss; for Tmax: read-out: Tmax; for F: mouse
Description: Test compounds were mixed with 10% dimethyl sulfoxide/50% polyethylene glycol 200/40% water (compounds 1, 4, 10, 17) or 20% N,N-dimethylacetamide/80% water (compound 5), vortexed and sonicated to prepare a nearly clear solution of 0.08 mg/mL (compounds 1, 4, 10, 17) or 0.50 mg/mL (compound 5), then filtered through a microporous membrane for next step. Balb/c male mice of 18 to 20 grams were selected and administered intravenously with the candidate compound solution at a dose of 0.4 (compounds 1, 4, 10, 17) or 1 mg/kg (compound 5). Test compounds were mixed with 10% dimethyl sulfoxide/50% polyethylene glycol 200/40% water (compounds 1, 4, 10, 17) or 20%-hydroxypropyl-β-cyclodextrin (compound 5), vortexed and sonicated to prepare a nearly clear solution of 0.2 mg/mL (compounds 1, 4, 10, 17) or 1 mg/mL (compound 5), then filtered through a microporous membrane for next step. Balb/c male mice of 18 to 20 grams were selected and orally administered with the candidate compound solution at a dose of 2 (compounds 1, 4, 10, 17) or 5 mg/kg (compound 5). Whole blood was collected for a certain period of time, and plasma was prepared, then drug concentration was detected by LC-MS/MS method, and pharmacokinetic parameters were calculated by Phoenix WinNonlin software (Pharsight, USA).
IV: intravenous injection; PO: oral; C0: instantaneous […] concentration after intravenous injection; Cmax: highest plasma concentration after administration; Tmax: time required to reach peak of drug concentration after administration; T1/2: time required for the plasma drug concentration to decrease by half, Vdss: apparent volume of distribution, refers to the proportional constant of the drug dose in vivo and the blood drug concentration when the drug reaches a dynamic equilibrium in vivo. Cl: clearance rate, refers to the […] cleared from the body per unit time; Tlast: time at the last detection point; AUC0-last: area under the drug-time curve, refers to the area covered by the plasma concentration curve and the time axis; F: a measure of the speed and degree of drug absorption into the blood circulation, which is an important indicator for evaluating the degree of drug absorption.

[2] = test system: human non-small cell lung cancer NCI-H1703 cell subcutaneous xenograft tumor; assay: In vivo pharmacodynamics, NCI-H1703 subcutaneous xenograft tumor model; set-up: species or system BALB/c nude mice; settings: for Tumor volume (Day 0): Day 0 (baseline), Mean ± SEM; for Tumor volume (Day 21): Day 21, Mean ± SEM; for T/Cweight: day 21; for Tumor weight (PG-D21): day 21, Mean ± SEM
Description: Experimental purpose: To study the in vivo pharmacodynamics of the test compounds in BALB/c nude mice model with human non-small cell lung cancer NCI-H1703 cell subcutaneous xenograft tumor
Experimental animals: Female BALB/c nude mice, 6-8 weeks old, weighing 18-22 grams; supplier: Shanghai Sippe-Bk Lab Animal Co., Ltd.
Human non-small cell lung cancer NCI-H1703 cells were cultured in vitro in RPMI1640 medium with 10% fetal bovine serum, 100 U/mL penicillin and 100 μg/mL streptomycin at 37° C. in a 5% CO2 incubator. Conventional digestion with trypsin-EDTA was performed twice a week for passage. When the cell saturation was 80%-90% and the number reached the requirement, the cells were collected, counted, and seeded.
0.2 mL (5×10^6 cells) NCI-H1703 cells (added with matrigel, volume ratio of 1:1) were subcutaneously inoculated into the right back of each mouse, and the group administration started when the average tumor volume reached about 130 mm^3.
Compound 5 was prepared into 3 mg/mL, 6 mg/mL, 9 mg/mL suspension solutions, and compound 17 was prepared into 9 mg/mL suspensions, and the solvent was 0.5% HPMC+1% Tween 80.
Tumor diameters were measured with vernier calipers twice a week. The calculation formula of tumor volume is: V=0.5a×b^2, wherein a and b represent the long and short diameters of the tumor, respectively.
The antitumor efficacy of the compounds was evaluated by TGI (%) or relative tumor proliferation rate T/C (%). Relative tumor proliferation rate T/C (%)=TRTV/CRTV×100% (TRTV: means RTV in the treatment group; CRTV: means RTV in the negative control group). The relative tumor volume (RTV) was calculated according to the results of tumor measurement. The calculation formula is RTV=Vt/V0, wherein V0 is the tumor volume measured at the time of group administration (i.e., day 0), and Vt is the tumor volume at one measurement. Data of the same day was taken for TRTV and CRTV.
TGI (%), reflecting tumor growth inhibition rate. TGI (%)=[1−(average tumor volume at the end of administration of a certain treatment group-average tumor volume at the beginning of administration of this treatment group)/(average tumor volume at the end of treatment in the solvent control group-average volume at the beginning of treatment in the solvent control group tumor volume)]×100%. After the experiment, the tumor weight was detected, and the T/weight percentage was calculated. T weight and C weight represent the tumor weight of the administration group and the solvent control group, respectively.
Statistical analysis was performed using SPSS software based on RTV data at the end of the experiment. […] T-test was used to analyze the comparison between two groups, and one-way ANOVA was used to analyze the comparison between three or more groups. If the variance was homogeneous (F value had no significant difference), Tukey's method was used for analysis. If the variance was not homogeneous (F value had significant difference), the Games-Howell method was used to test. p<0.05 was considered a significant difference.

Cc1cc2ncnn2cc1Nc1ncc2c(n1)n(N1CC3CCC(C1)O3)c(=O)n2C [Compound 5]
AUC(0-t) ([1]; IV 1 mg/kg): 1.66 µM·h
C0 ([1]; IV 1 mg/kg): 3600 nM
clearance ([1]; IV 1 mg/kg): 24.7 mL/min/kg
half-life ([1]; IV 1 mg/kg): 76.8 min
Vd ([1]; IV 1 mg/kg): 1.49 L/kg
AUC(0-t) ([1]; PO 5 mg/kg): 3.49 µM·h
Cmax ([1]; PO 5 mg/kg): 2170 nM
half-life ([1]; PO 5 mg/kg): 231 min
Tmax ([1]; PO 5 mg/kg): 15 min
Tlast ([1]; PO 5 mg/kg): 10 h
F ([1]; PO 5 mg/kg vs IV 1 mg/kg): 44.5%
Tumor volume (Day 0) ([2]; 30 mg/kg twice a day): 131 ± 10 mm^3
RTV (Day 21) ([2]; 30 mg/kg twice a day): 7.57 ± 0.53
T/C (%) (Day 21) ([2]; 30 mg/kg twice a day): 79.3%
TGI (%) (Day 21) ([2]; 30 mg/kg twice a day): 20.6%
Tumor volume (Day 21) ([2]; 30 mg/kg twice a day): 979 ± 86 mm^3
tumor inhibitory effect compared with the blank control (in words) ([2]; 30 mg/kg, administered twice a day): certain tumor inhibitory effect
T/Cweight ([2]; 30 mg/kg): 79.6%
Tumor weight (PG-D21) ([2]; 30 mg/kg): 1.031 ± 0.095 g
Tumor volume (Day 0) ([2]; 60 mg/kg twice a day): 131 ± 10 mm^3
RTV (Day 21) ([2]; 60 mg/kg twice a day): 3.31 ± 0.51
T/C (%) (Day 21) ([2]; 60 mg/kg twice a day): 34.7%
TGI (%) (Day 21) ([2]; 60 mg/kg twice a day): 72.3%
Tumor volume (Day 21) ([2]; 60 mg/kg twice a day): 427 ± 64 mm^3
T/Cweight ([2]; 60 mg/kg): 36.0%
Tumor weight (PG-D21) ([2]; 60 mg/kg): 0.467 ± 0.078 g
tumor inhibitory effect compared with the blank control (in words) ([2]; 60 mg/kg, dosed twice a day): significant tumor inhibitory effect
Tumor volume (Day 0) ([2]; 90 mg/kg twice a day): 130 ± 10 mm^3
RTV (Day 21) ([2]; 90 mg/kg twice a day): 2.64 ± 0.45
T/C (%) (Day 21) ([2]; 90 mg/kg twice a day): 27.7%
TGI (%) (Day 21) ([2]; 90 mg/kg twice a day): 79.4%
Tumor volume (Day 21) ([2]; 90 mg/kg twice a day): 351 ± 64 mm^3
T/Cweight ([2]; 90 mg/kg): 29.2%
Tumor weight (PG-D21) ([2]; 90 mg/kg): 0.379 ± 0.069 g
tumor inhibitory effect compared with the blank control (in words) ([2]; 90 mg/kg, dosed twice a day): significant tumor inhibitory effect
dose dependence of the therapeutic effect ([2]; 30, 60, 90 mg/kg twice a day): dose-dependent

Cc1cc2nncn2cc1Nc1ncc2c(n1)n(N1CC3CCC(C1)O3)c(=O)n2C [Compound 17]
AUC(0-t) ([1]; IV 0.4 mg/kg): 0.47 µM·h
C0 ([1]; IV 0.4 mg/kg): 748 nM
clearance ([1]; IV 0.4 mg/kg): 34.7 mL/min/kg
half-life ([1]; IV 0.4 mg/kg): 33.5 min
Vd ([1]; IV 0.4 mg/kg): 1.39 L/kg
AUC(0-t) ([1]; PO 2 mg/kg): 3.4 µM·h
Cmax ([1]; PO 2 mg/kg): 1540 nM
half-life ([1]; PO 2 mg/kg): 48.6 min
Tmax ([1]; PO 2 mg/kg): 60 min
Tlast ([1]; IV 0.4 mg/kg): 4 h
Tlast ([1]; PO 2 mg/kg): 8 h
F ([1]; PO 2 mg/kg vs IV 0.4 mg/kg): 144%
Tumor volume (Day 0) ([2]; 90 mg/kg twice a day): 130 ± 13 mm^3
RTV (Day 21) ([2]; 90 mg/kg twice a day): 3.19 ± 0.46
T/C (%) (Day 21) ([2]; 90 mg/kg twice a day): 33.4%
TGI (%) (Day 21) ([2]; 90 mg/kg twice a day): 71.6%
Tumor volume (Day 21) ([2]; 90 mg/kg twice a day): 435 ± 94 mm^3
T/Cweight ([2]; 90 mg/kg): 35.9%
Tumor weight (PG-D21) ([2]; 90 mg/kg): 0.466 ± 0.103 g
tumor inhibitory effect compared with the blank control (in words) ([2]; 90 mg/kg, dosed twice a day): significant tumor inhibitory effect
